Data reported in US8957012B2, “Gamma secretase inhibitor for treatment of herpesvirus infection” (The Trustees of the University of Pennsylvania, priority 2006, dated 2015).
Entries after “also recorded” stand apart in the source; their conditions may differ.

Experiments:
[1] = test system: KSHV in BCBL1 cells; assay type: cell-based
[2] = test system: KSHV-GFP Bac36 recombinant virus in Vero cells; assay type: cell-based
[3] = test system: BCBL1 cells; experiment: Cell proliferation, trypan blue counting; assay type: cell-based; conditions: KSHV-positive cells; RPMI 1640 with 5% BGS; trypan blue counts
Protocol: (§1) Each cell type (100,000 cells) was cultured in RPMI 1640 with 5% BGS. At each time point, cells were stained with trypan blue and counted. The results represent three independent experiments. (B) CFSE staining showing mitosis of DG75 (left panel) and BCBL1 (right panel) cells. Five million cells were cultured in RPMI 1640 with 5% BGS and mock treated (red curves) or treated with γ-secretase inhibitor at 20 μM (blue curves). At 48 h post treatment, cells were harvested for FACS analysis to determine mitotic activity. Gray and black curves represent negative and positive controls, respectively. The negative control was non-CFSE-staining cells, and the positive control was CFSE-staining but immediately fixed cells. (C) 7AAD staining analysis of mock treated (left panel) and KSHV-infected (right panel) primary B cells. Two million primary B cells were mock treated or KSHV infected for 4 weeks and harvested for 7AAD staining. The percentages of dead and necrotic cells are shown. (D) Four-week KSHV-infected primary B cells were harvested and mock treated (left panel) or treated with γ-secretase inhibitor (right panel) for 5 days, and then cells were stained with 7AAD for FACS analysis.
(§2) As was mentioned previously, aberrant Notch signaling is highly associated with oncogenesis. […] Cells stained with CFSE followed by treatment with the γ-secretase inhibitor for 48 h were monitored by FACS.

[4] = test system: DG75 cells; experiment: Cell proliferation, trypan blue counting; assay type: cell-based; conditions: KSHV-negative cells; RPMI 1640 with 5% BGS; trypan blue counts
Protocol: as §1, §2

[5] = test system: BCBL1 cells; experiment: CFSE staining of mitotic activity by FACS; assay type: cell-based; conditions: 20 μM, 48 h, vs untreated cells
Protocol: as §1, §2

[6] = test system: DG75 cells; experiment: CFSE staining of mitotic activity by FACS; assay type: cell-based; conditions: 20 μM, 48 h, treated vs untreated
Protocol: as §1, §2

[7] = test system: KSHV-infected primary B cells; experiment: 7AAD staining FACS analysis of cell death; assay type: cell-based; conditions: 4-week KSHV Bac36-infected primary B cells; treated 5 days; mock-treated 21.2%
[8] = test system: BCBL1 cells; experiment: Cell cycle distribution, propidium iodide FACS; assay type: cell-based; conditions: 48 h post treatment
Protocol: (§3) At 48 h post treatment, cells were harvested, fixed, and stained with propidium iodide. M2, M3, and M4 represent the G1, S, and G2/M populations of cells, respectively. M1 and M5 represent hypo- and hypernucleated cells, respectively. The percentage of cells in each different phase is indicated. Western blot analysis indicates the ICN levels in γ-secretase inhibitor-treated DG75 cells or BCBL1 cells. The relative density (RD) of ICN in each sample is also shown.
(§4) As was shown in the above Examples; a γ-secretase inhibitor can dramatically slow down proliferation of the KSHV-positive BCBL1 cell line.

[9] = test system: DG75 cells; experiment: Cell cycle distribution, propidium iodide FACS; assay type: cell-based; conditions: 48 h post treatment
Protocol: as §3, §4

[10] = test system: Notch1 ICN in BCBL1 cells; experiment: Western blot of ICN levels; assay type: cell-based; conditions: BCBL1 cells treated with inhibitor
Protocol: as §3, §4

[11] = test system: cyclin D1 in KSHV-positive cells; experiment: Western blot of cyclin D1 levels; conditions: KSHV-positive cells treated with inhibitor
[12] = test system: BCBL1 cells; experiment: SCID mouse model of KSHV infected B lymphoma; conditions: listed as GSI

Row | Compound | RTA expression (Western blot) [1] | production of infectious virions in supernatant [1] | GFP signals in cells infected with supernatant (FACS) [2] | proliferation of BCBL1 cells [3] | proliferation of DG75 cells [4] | mitotic activity (CFSE) [5] | mitotic activity (CFSE) [6] | cells that had undergone death (7AAD positive) [7] | more cells arrested at G1 phase than mock-treated [8] | changes in G1 phase of the cell cycle [9] | ICN levels (Western blot) [10] | cyclin D1 levels (Western blot) [11] | survival time of mice ([12]; SCID mice with BCBL1, 30 mg/kg daily, vs saline control) | progression of the tumor / formation of tumor and ascites ([12]; SCID mice, 10 million BCBL1 cells i.p., 30 mg/kg i.p. daily, vs saline, 30 mg/kg) | histopathology of BCBL1 tumor cells ([12]; tumor tissue of treated mice, vs saline mock treated)
1 | CCCCCCCCCCCCCC(=O)O[C@@H]1[C@@H](C)[C@@]2(O)[C@@H](C=C(CO)C[C@]3(O)C(=O)C(C)=C[C@@H]23)[C@@H]2C(C)(C)[C@]12OC(C)=O [TPA, tetradecanoyl phorbol acetate] | strongly expressed | infectious virions were produced | GFP signals were detected | – | – | – | – | – | – | – | – | – | – | – | –
2 | C[C@H](NC(=O)Cc1cc(F)cc(F)c1)C(=O)N[C@H](C(=O)OC(C)(C)C)c1ccccc1 [γ-secretase inhibitor, N—[N-(3,5-difluorophenacetyl-L-alanyl)]-S-phenylglycine t-butyl ester] | – | – | – | dramatically slowed | minimally affected | dramatically decreased | relatively unchanged | about 45.4% | approximately 30% | no significant changes | decreased | depressed | significantly prolong; also recorded: significantly increase | greatly slow down; also recorded: greatly delayed | necrosis and apoptosis; also recorded: a lot of necrotic and apoptotic cells
